Paper PMC8230303, “Coumarin-Based Triapine Derivatives and Their Copper(II) Complexes: Synthesis, Cytotoxicity and mR2 RNR Inhibition Activity” (Biomolecules, 2021)
Read-outs that look alike come from different tables or passages of the source.

Key:
[1] = set-up: method as in doi:10.1002/ejic.200901174; settings: copper(II) complex of the named ligand; cited from earlier work
[2] = tested on: COLO-320 cells; experiment: Inhibition of cell viability, colorimetric MTT assay; assay type: cell-based, human; settings: for IC50: Homo sapiens, COLO 320, MTT assay, 72 h exposure, mean ± SD
Description: (§1) Human breast adenocarcinoma cells MDA-MB-231, sensitive COLO-205 and multidrug resistant COLO-320 colorectal adenocarcinoma cells and normal human lung fibroblasts MRC-5 were obtained from ATCC. COLO-205 and COLO-320 cells were cultured in RPMI-1640 medium containing 10% foetal bovine serum, MRC-5 cells were cultured in EMEM medium containing 10% foetal bovine serum. MDA-MB-231 cells were cultured in DMEM/high glucose medium containing 10% FBS. Adherent MDA-MB-231 cells were grown in Falcon tissue culture 75 cm^2 flasks and all other cells were grown in tissue culture 25 cm^2 flasks (BD Biosciences, Singapore). All cell lines were grown at 37 °C in a humidified atmosphere of 95% air and 5% CO2. The stock solutions of copper(II) complexes were prepared in DMSO.
(§2) The cytotoxicity of the compounds was determined by colorimetric MTT assay. The cells were harvested from culture flasks by trypsinisation and seeded into Cellstar 96-well microculture plates at the seeding density of 6000 cells per well (6 × 10^4 cells/mL, MDA-MB-231) or 10,000 cells per well (1× 10^5 cells/mL cells/mL, COLO-205, COLO-320 and MRC-5). The cells were allowed to resume exponential growth for 24 h, and subsequently were exposed to drugs at different concentrations in media for 72 h. The drugs were diluted in complete medium at the desired concentration and added to each well (100 µL) and serially diluted to other wells. After exposure for 72 h, the media were replaced with MTT in media (5 mg/mL, 100 µL) and incubated for additional 50 min. Subsequently, the media were aspirated and the purple formazan crystals formed in viable cells were dissolved in DMSO (100 µL). Optical densities were measured at 570 nm using the BioTek H1 Synergy (BioTek, Singapore) microplate reader. The quantity of viable cells was expressed in terms of treated/control (T/C) values in comparison to untreated control cells, and 50% inhibitory concentrations (IC50) were calculated from concentration-effect curves by interpolation. Evaluation was based on at least three independent experiments, each comprising six replicates per concentration level.

[3] = tested on: MRC-5 cells; experiment: as above; assay type: cell-based; settings: Homo sapiens, MRC5, healthy lung fibroblasts, 72 h exposure, mean ± SD
Description: as §1, §2

[4] = tested on: COLO-205 cells; experiment: as above; assay type: cell-based; settings: Homo sapiens, 72 h exposure, mean ± SD
Description: as §1, §2

[5] = tested on: MDA-MB-231 cells; experiment: as above; assay type: cell-based; settings: Homo sapiens, 72 h exposure, mean ± SD
Description: as §1, §2

[6] = biological target: T1, mouse R2 RNR protein (Mus musculus, UniProt P11157); set-up: method as in PMID 32961653; settings: in 3 min; cited from earlier work
T1 construct: mR2 protein was expressed, purified, and iron-reconstituted as described previously; made in house
T1 sequence (P11157 1-390): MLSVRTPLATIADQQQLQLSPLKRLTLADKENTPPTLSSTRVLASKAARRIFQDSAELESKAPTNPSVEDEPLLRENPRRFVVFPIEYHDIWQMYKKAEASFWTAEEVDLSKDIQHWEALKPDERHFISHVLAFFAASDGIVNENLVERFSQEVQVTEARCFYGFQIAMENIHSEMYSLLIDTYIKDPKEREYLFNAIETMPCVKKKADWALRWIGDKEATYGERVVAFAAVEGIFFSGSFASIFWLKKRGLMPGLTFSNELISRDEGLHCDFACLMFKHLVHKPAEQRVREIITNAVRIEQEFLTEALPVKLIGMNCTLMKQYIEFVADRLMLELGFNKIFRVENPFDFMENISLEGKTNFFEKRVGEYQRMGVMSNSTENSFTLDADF

[7] = tested on: MDA-MB-231 cells; set-up: method as in PMID 30384010; settings: cited from earlier work

SMILES | IC50 [2] [µM] | IC50 [4] [µM] | IC50 [5] [µM] | logβ[CuL]+ [1] | IC50 [3] [µM] | SF ([2]; IC50(MRC-5)/IC50(COLO-320)) | tyrosyl radical reduction [6] [%] | IC50 [7] [µM]
CN(C)C(=S)NN=Cc1ncccc1N [APTSC, 3-aminopyridine-2-carboxaldehyde 4N-dimethylthiosemicarbazone] |  |  |  | 13.95(2) |  |  |  | 
COc1cccc2c1C(=O)c1c(O)c3c(c(O)c1C2=O)C[C@@](O)(C(=O)CO)C[C@@H]3O[C@H]1C[C@H](N)[C@H](O)[C@H](C)O1 [Doxorubicin, reference compound] | 3.1 | 3.3 |  |  | 5.2 |  |  | 
CN(C)C(=S)NN=Cc1ccccn1 [PTSC, pyridine-2-carboxaldehyde 4N-dimethylthiosemicarbazone] |  |  |  | 13.57(2) |  |  |  | 
NC(=S)NN=Cc1ncccc1N [Triapine, 3-aminopyridine-2-carboxaldehyde thiosemicarbazone] |  |  |  | 13.89(3) |  |  | 100 | 1.5 ± 1.1

The next lines start with results.

IC50 [2] [µM] | IC50 [4] [µM] | IC50 [5] [µM] | SMILES | logβ[CuL]+ [1] | IC50 [3] [µM] | SF ([2]; IC50(MRC-5)/IC50(COLO-320)) | tyrosyl radical reduction [6] [%] | IC50 [7] [µM]
4.6 ± 0.3 | 4.4 ± 0.7 | 3 ± 0.3 | CN(C)C(=S)NN=Cc1cc(COc2ccc3cc(C(=O)N4CCN(Cc5ccnc(C=NNC(=S)N(C)C)c5)CC4)c(=O)oc3c2)ccn1 [H2L^4, 2-((4-((4-(7-((2-((2-(dimethylcarbamothioyl)hydrazineylidene)methyl)pyridin-4-yl)methoxy)-2-oxo-2H-chromene-3-carbonyl)piperazin-1-yl)methyl)pyridin-2-yl)methylene)-N,N-dimethylhydrazine-1-carbothioamide] |  | 4 ± 0.3 | 0.9 |  | 
6.7 ± 0.9 | 9.2 ± 0.1 | 4.8 ± 1.3 | CN(C)C(=S)NN=Cc1cc(CN2CCN(C(=O)c3cc4ccc(O)cc4oc3=O)CC2)ccn1 [HL^1, 2-((4-((4-(7-Hydroxy-2-oxo-2H-chromene-3-carbonyl)piperazin-1-yl)methyl)pyridin-2-yl)methylene)-N,N-dimethylhydrazine-1-carbothioamide] |  | 41 ± 1 |  |  | 
83 ± 7 | 89 ± 6 | 18 ± 4 | O=C(c1cc2ccc(O)cc2oc1=O)N1CCN(Cc2ccnc(C=NNC(=S)Nc3ccccc3)c2)CC1 [HL^2, 2-((4-((4-(7-Hydroxy-2-oxo-2H-chromene-3-carbonyl)piperazin-1-yl)methyl)pyridin-2-yl)methylene)-N-phenylhydrazine-1-carbothioamide] |  | 54 ± 5 |  |  | 
90 ± 10 | 76 ± 8 | 11 ± 1 | Cc1cc(NCNN=Cc2cc(CN3CCN(C(=O)c4cc5ccc(O)cc5oc4=O)CC3)ccn2)cc(C)c1O [HL^3, 7-Hydroxy-3-(4-((2-((2-(((4-hydroxy-3,5-dimethylphenyl)amino)methyl)hydrazineylidene)-methyl)pyridin-4-yl)methyl)piperazine-1-carbonyl)-2H-chromen-2-one] |  | > 100 |  |  | 
